Experimental data published in paper PMC6689975, “Novel Cell Wall Antifungals Reveal a Special Synergistic Activity in pbr1 Mutants Resistant to the Glucan Synthesis Antifungals Papulacandins and Echinocandins” (Frontiers in Microbiology, 2019).
Converted amounts (≈) assume the structure as drawn. Where two headings read alike, the source gives them in different places.

How the values were obtained:
Experiment in all cases: microbe, parasite or virus in culture
[1] = system: T1, S. cerevisiae wild-type CVX12-3A; parameters: species or system whole yeast cells; micro-culture broth dilution MIC in YES at 30 C, turbidity, complete growth inhibition; settings: Saccharomyces cerevisiae
T1 construct: CVX12-3A
Protocol: (§1) Standard YEPD (Yeast Extract, Peptone, Dextrose) ([Sherman, 1990]), YEPD+S (YEPD with 1.2M sorbitol), YES (Yeast Extract, Dextrose and Supplements of Adenine, Histidine, Leucine, Uracil and Lysine) ([Alfa et al., 1993]) and YES+S (YES with 1.2 M sorbitol) ([Ribas et al., 1991]; [Ishiguro et al., 1997]), media were used for determination of MIC values of the tested compounds. A stock solution of 10 mg/ml of each tested compounds was prepared in DMSO and serial dilutions in DMSO were prepared. The final concentration of DMSO was 2% in the YEPD medium. […] The serial dilutions of compounds were dispensed into test tubes with 1 ml of YEPD or YEPD+S to make final concentrations of 200, 100, 50, 25, 12.5, 6.26, 3.125, 1.6, 0.8 and 0.4 μg/ml. The tested yeast strains were previously grown in YEPD, YEPD+S, YES or YES+S agar plates at 30°C for 48 h. Micro-culture assays of large numbers of samples were analyzed as described) ([Martins et al., 2011]). Essentially early log-phase cells were grown in YEPD, YEPD+S, YES or YES+S (1.2 M sorbitol) medium at 30°C, and diluted to cell density of 4 X 10^6 cells/ml in YEPD, YEPD+S, YES or YES+S medium and aliquots of 100 μl were dispensed into each small test tube (3 ml test tube size). Then, another 100 μl of YEPD, YEPD+S, YES or YES+S with the corresponding dilution of each compound at 2X concentration (4% DMSO) was added. The final volume was 200 μl, with the cells diluted to of 2 X 10^6 cells/ml and each compound diluted to 1X final concentration, containing increasing concentrations of antifungal (0, 1, 2, 5, 10, 20, 50, 100 and 200 μg/ml) or an equivalent volume of solvent (2% DMSO). The cells were grown at 30°C in an orbital roller and turbidity was analyzed after 24 and 48 h of incubation. The MIC was determined as the minimal concentration of tested compound that produced complete cell growth inhibition and kept the medium clear. The MIC values were calculated from at least three independent experiments. Next, the first generation of isochromanones (1E-16E) was also screened in YES medium (Table 5) and exerted a weaker antifungal potency than in YEPD medium and also than the second family of isochromanones in YES medium (17E-30E) (Table 6). The strains are partly different from the previously mentioned ones (Tables 5, 6) analyzing two wild type C. albicans strains because they behaved similarly in YEPD. It is remarkable that there was no effect against either the C. albicans, the S. cerevisiae, or the S. pombe wild-type strains, except with 30E.

[2] = system: T2, S. pombe wild-type 972 h-; parameters: species or system whole yeast cells; micro-culture broth dilution MIC in YES at 30 C, turbidity, complete growth inhibition; settings: Schizosaccharomyces pombe
T2 construct: 972 h-
Protocol: as §1

C. albicans wild-type [3] = system: C. albicans wild-type; parameters: species or system whole yeast cells; macro tube broth dilution MIC in YEPD at 30 C, visual clearness of medium; settings: Candida albicans, 48 h, YEPD medium
C. albicans wild-type [4] = system: C. albicans wild-type; parameters: species or system whole yeast cells; micro-culture broth dilution MIC in YES at 30 C, turbidity, complete growth inhibition; settings: Candida albicans; YES medium, C. albicans strain f
Protocol: as §1

Question: With `CC[C@H](C)C[C@H](C)CCCCCCCCC(=O)N[C@H]1C[C@@H](O)[C@@H](NCCN)NC(=O)[C@@H]2[C@@H](O)CCN2C(=O)[C@H]([C@H](O)CCN)NC(=O)[C@H]([C@H](O)[C@@H](O)c2ccc(O)cc2)NC(=O)[C@@H]2C[C@@H](O)CN2C(=O)[C@H]([C@@H](C)O)NC1=O` [caspofungin] as the molecule, how does the MIC ([1]; read-out: MIC) read?
Answer: 0.5 µg/mL (≈ 0.457 µM)

Question: And the MIC ([2]; read-out: MIC)?
Answer: 10 µg/mL (≈ 9.15 µM)

Question: Which MIC (C. albicans wild-type [3]; C. albicans strain f) does the source give for `O=c1oc2ccc3ccccc3c2cc1-c1ccccc1CO` [compound 12] here?
Answer: > 200 µg/mL

Question: And the MIC (C. albicans wild-type [3]; C. albicans strain g)?
Answer: > 200 µg/mL

Question: And the MIC (C. albicans wild-type [3]; C. albicans strain h)?
Answer: > 200 µg/mL

Question: What about the MIC (C. albicans wild-type [4]) of the same molecule?
Answer: > 200 µg/mL

Question: What about the MIC ([1]; YES medium) of the same molecule?
Answer: > 200 µg/mL

Question: And the MIC ([2]; YES medium)?
Answer: > 200 µg/mL

Question: `O=c1oc2ccccc2cc1-c1ccccc1CO` [compound 15] was tested. Which MIC (C. albicans wild-type [3]; C. albicans strain f) did it give?
Answer: > 100 µg/mL

Question: And the MIC (C. albicans wild-type [3]; C. albicans strain g)?
Answer: > 100 µg/mL

Question: What about the MIC (C. albicans wild-type [3]; C. albicans strain h) of the same molecule?
Answer: > 100 µg/mL

Question: What about the MIC (C. albicans wild-type [4]) of the same molecule?
Answer: > 200 µg/mL

Question: And the MIC ([1]; YES medium)?
Answer: > 200 µg/mL

Question: And the MIC ([2]; YES medium)?
Answer: > 200 µg/mL
